Reference: paper PMC11674187, “Inhibitory Effects of Cenobamate on Multiple Human Cardiac Ion Channels and Possible Arrhythmogenic Consequences” (Biomolecules, 2024)
Values joined by “and” are separate entries in the source; they are usually repeats but may differ in a detail not shown here. Equal values may be shown once. Read-outs that look alike come from different tables or passages of the source.

Experiments:
[1] = mouse; ref [5] p.10; cited from earlier work
hNav1.5 = biological target: T1, hNav1.5 (Homo sapiens, UniProt Q14524); experiment: Whole-cell patch-clamp on HEK293T cells, peak INa (standard, activation and inactivation protocols); type: cell-based
T1 construct: host or cells: HEK293T
T1 sequence (Q14524 whole entry): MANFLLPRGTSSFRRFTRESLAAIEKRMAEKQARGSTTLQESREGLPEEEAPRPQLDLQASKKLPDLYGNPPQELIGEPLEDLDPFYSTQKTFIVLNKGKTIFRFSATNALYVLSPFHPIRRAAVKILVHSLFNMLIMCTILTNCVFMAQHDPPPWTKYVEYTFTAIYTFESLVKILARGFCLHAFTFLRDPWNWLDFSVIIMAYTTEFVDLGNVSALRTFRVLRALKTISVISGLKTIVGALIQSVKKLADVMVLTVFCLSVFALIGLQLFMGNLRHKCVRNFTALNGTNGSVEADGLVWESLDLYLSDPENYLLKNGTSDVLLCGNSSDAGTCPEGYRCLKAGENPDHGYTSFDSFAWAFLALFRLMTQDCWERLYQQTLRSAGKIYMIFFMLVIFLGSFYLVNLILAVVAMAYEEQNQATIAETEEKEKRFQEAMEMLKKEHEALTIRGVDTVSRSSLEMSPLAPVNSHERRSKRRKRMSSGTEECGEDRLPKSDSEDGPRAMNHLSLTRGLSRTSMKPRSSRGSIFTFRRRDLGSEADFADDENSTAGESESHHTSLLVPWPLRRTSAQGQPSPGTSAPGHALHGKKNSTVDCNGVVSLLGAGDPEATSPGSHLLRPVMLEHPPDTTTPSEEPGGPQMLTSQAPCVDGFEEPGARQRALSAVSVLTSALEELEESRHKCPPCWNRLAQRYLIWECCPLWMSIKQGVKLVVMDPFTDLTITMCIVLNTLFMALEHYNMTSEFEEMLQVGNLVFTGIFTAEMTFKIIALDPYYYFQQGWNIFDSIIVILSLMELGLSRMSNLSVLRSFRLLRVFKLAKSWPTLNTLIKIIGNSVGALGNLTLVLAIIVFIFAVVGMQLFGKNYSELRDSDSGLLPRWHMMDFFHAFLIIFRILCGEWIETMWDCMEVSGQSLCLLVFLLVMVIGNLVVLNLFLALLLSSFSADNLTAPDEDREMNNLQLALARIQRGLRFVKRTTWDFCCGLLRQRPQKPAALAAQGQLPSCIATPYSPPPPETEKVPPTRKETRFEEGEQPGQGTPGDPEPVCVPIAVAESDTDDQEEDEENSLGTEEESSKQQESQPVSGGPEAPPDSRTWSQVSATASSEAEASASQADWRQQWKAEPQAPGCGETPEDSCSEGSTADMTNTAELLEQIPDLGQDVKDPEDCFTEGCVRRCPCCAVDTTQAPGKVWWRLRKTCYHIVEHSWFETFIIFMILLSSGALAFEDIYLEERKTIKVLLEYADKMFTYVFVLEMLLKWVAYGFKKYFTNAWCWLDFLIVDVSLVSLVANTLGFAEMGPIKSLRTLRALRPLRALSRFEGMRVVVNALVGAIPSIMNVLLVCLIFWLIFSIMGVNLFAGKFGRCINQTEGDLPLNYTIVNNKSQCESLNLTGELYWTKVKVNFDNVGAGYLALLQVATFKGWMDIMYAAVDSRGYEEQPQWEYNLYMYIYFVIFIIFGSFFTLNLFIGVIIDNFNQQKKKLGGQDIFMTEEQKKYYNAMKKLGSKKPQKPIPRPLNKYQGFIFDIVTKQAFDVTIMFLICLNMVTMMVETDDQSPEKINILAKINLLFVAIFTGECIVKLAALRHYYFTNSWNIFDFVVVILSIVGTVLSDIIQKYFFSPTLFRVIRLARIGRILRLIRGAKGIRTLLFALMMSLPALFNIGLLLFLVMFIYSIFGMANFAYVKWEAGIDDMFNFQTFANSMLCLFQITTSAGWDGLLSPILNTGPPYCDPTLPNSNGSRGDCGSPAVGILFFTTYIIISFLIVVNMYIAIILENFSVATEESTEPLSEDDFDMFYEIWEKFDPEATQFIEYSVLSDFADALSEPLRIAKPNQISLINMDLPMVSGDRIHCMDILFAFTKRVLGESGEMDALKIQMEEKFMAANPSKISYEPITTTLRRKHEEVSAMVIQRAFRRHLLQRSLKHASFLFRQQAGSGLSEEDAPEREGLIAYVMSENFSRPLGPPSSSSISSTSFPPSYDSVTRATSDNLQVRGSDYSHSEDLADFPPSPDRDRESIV
Procedure: (§1) Experiments were performed on HEK293T cell lines with persistent/inducible expression of different human cardiac ion channel isoforms: hNav1.5 and hKv7.1 + minK (Anaxon AG, Bern, Switzerland), hCav1.2 (α1c + β2 + α2δ1) (B’SYS GmbH, Witterswil, Switzerland), and hKv11.1 (hERG) (Cytocentrics Bioscience GmbH, Rostock, Germany). The cell lines were grown in standard conditions (37 °C, 5% CO2, 90% humidity) in DMEM:F12 medium (D8900, Sigma-Aldrich, Burlington, MA, USA) buffered with 15 mM HEPES, containing 3.15 g/L D-glucose and 0.055 g/L sodium pyruvate, supplemented with 1.2 g/L sodium bicarbonate, 10% fetal bovine serum (F2442, Sigma-Aldrich, Burlington, MA, USA), 2 mM L-glutamine (G7513, Sigma-Aldrich, Burlington, MA, USA), 1% penicillin–streptomycin (P4333, Sigma-Aldrich, Burlington, MA, USA), and with specific antibiotics for selection of transfected cells or induction of gene expression according to manufacturers’ instructions. The medium was changed every 2–3 days and the cells were passed weekly upon detachment with trypsin–EDTA solution. All cell culture media and solutions were sterile filtered with 0.22 μm polyvinylidene fluoride filters. Ncyte® vCardiomyocytes (Ncardia, Leiden, The Netherlands) were cultured in 24-well plates precoated with bovine fibronectin, following manufacturer’s instructions. For the experiments, cardiomyocytes were detached as described previously and plated on ϕ 10 mm glass coverslips, like the other cell lines.
(§2) Manual whole-cell patch-clamp experiments were performed at room temperature, with equipment as described in previous studies. Pipettes were pulled from Clark borosilicate glass capillaries with inner filament (GC150F-10, Harvard Apparatus, Holliston, MA, USA) and had typical resistances of 2–3 MΩ. Recordings were performed with a WPC-100 resistive feedback amplifier (ESF electronic, Göttingen, Germany) or an Axopatch 200B amplifier (Axon Instruments—Molecular Devices, San Jose, CA, USA) connected to a Digidata 1322A interface driven by the pClamp 8.2 Clampex module (Axon Instruments, part of Molecular Devices, San Jose, CA, USA). For different types of ion channel, we applied specific voltage-clamp protocols as follows: • - For hERG, a standard two-step activation protocol was used: holding at −70 mV, a 100 ms step at −50 mV used as current reference for measurements, a 2 s depolarizing step at +40 mV, followed by a 2 s step at −50 mV to elicit the peak hERG current by rapid recovery from inactivation, repeated sweeps at 10 s intervals, plus specific protocols to assess the voltage dependence of activation and inactivation, as described in Thomet et al., 2021 [11]. • - For hKv7.1 + minK, a general two-step activation protocol was used: holding at −110 mV, a 250 ms step at −80 mV with a brief (50 ms) step at −90 mV at the middle to monitor seal quality, a 3000 ms depolarizing step at +60 mV, followed by a 1000 ms step at −50 mV; repeated sweeps at 20 s intervals. • - For hCav1.2, a pharmacology protocol with holding at −80 mV, a first 100 ms step at −50 mV and a second 200 ms step at 0 mV, repeated sweeps at 20 s intervals with drug application after 5 sweeps if current levels were steady, plus an activation–inactivation protocol with holding at −80 mV, 1000 ms depolarizing steps from −80 to +50 mV in 10 mV increments, followed by 250 ms steps at +10 mV and a return to −80 mV; 14 sweeps at 20 s intervals. • - For hNav1.5, multiple voltage protocols were used, including the following: • - A standard pharmacology protocol with holding at −90 mV, a 20 ms step at −110 mV for seal monitoring, a 40 ms activation step at −10 mV, and repeated sweeps at 1 s intervals. […]

hNav1.7 = system: hNav1.7; design: method as in ref [5] p. 8; settings: hNav1.7 in HEK293 cells, ref [5] p. 8, cited from earlier work
hKv11.1 (hERG) = biological target: T2, hKv11.1 (hERG) (Homo sapiens, UniProt Q12809); experiment: Whole-cell patch-clamp on HEK293T cells, IKr; type: cell-based
T2 construct: host or cells: HEK293T
T2 sequence (Q12809 whole entry): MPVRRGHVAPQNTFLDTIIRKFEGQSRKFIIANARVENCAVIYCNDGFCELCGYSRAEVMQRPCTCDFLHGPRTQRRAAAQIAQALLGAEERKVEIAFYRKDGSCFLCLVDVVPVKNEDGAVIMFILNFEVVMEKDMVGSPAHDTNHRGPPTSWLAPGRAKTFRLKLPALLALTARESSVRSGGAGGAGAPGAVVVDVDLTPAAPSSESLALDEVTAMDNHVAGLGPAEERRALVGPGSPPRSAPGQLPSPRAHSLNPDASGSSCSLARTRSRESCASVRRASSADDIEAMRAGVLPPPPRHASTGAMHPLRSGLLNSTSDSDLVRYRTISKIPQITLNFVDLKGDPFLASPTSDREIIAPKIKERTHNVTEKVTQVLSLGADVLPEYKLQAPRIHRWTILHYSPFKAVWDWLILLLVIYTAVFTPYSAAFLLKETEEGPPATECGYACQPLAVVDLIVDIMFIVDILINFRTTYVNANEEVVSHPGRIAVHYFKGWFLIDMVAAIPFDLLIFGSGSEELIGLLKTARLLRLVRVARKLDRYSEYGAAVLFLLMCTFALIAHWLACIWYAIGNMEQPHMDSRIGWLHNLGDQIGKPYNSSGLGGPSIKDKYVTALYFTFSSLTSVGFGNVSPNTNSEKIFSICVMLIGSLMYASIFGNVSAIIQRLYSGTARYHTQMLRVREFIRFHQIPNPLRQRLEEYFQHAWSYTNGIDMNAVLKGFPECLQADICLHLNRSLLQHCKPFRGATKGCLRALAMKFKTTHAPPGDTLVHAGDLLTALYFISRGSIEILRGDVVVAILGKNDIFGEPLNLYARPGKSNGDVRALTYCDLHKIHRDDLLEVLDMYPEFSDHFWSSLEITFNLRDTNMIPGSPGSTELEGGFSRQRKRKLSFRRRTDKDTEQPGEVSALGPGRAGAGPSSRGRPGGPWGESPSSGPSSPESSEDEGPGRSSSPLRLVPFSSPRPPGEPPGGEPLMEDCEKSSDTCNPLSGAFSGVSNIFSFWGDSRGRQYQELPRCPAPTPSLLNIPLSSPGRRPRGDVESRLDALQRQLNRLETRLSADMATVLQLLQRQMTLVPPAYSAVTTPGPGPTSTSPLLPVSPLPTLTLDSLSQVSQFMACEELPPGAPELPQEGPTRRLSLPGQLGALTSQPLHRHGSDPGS
Procedure: as §1, §2

hKv11.1 (hERG), IKr = biological target: T3, hKv11.1 (hERG), IKr (Homo sapiens, UniProt Q12809); experiment: Whole-cell patch-clamp on HEK293T cells, IKr; type: cell-based; settings: human, HEK293T cells expressing hKv11.1 (hERG); for inhibition at 200 µM: pH 7.4, cenobamate 200 µM
T3 construct: host or cells: HEK293T
T3 sequence (Q12809 whole entry): as above
Procedure: as §1, §2

[2] = cited from earlier work
IKr (hERG) = settings: read-out: apparent IC50 for IKr (hERG); used for further computations; ref [5] p. 10; cited from earlier work
[3] = design: method as in PMID 33031714; settings: adults with focal onset seizures; ref [2]; cited from earlier work
[4] = ref https://go.drugbank.com/drugs/DB06119; cited from earlier work

Question: With `NC(=O)O[C@@H](Cn1ncnn1)c1ccccc1Cl` [cenobamate] as the compound, how does the protein binding [1] read?
Answer: 43.2%

Question: And the inhibition at 10 µM (hNav1.5; HEK-293T, cenobamate 10 µM, read-out: % INa inhibition (peak), mean (Table S2))?
Answer: 8.6%

Question: And the inhibition at 10 µM (hNav1.5; HEK-293T, cenobamate 10 µM, read-out: % INa inhibition (peak), single experiments (Table S2))?
Answer: 8.58%

Question: What about the inhibition at 40 µM (hNav1.5; HEK-293T, cenobamate 40 µM, read-out: % INa inhibition (peak), mean (Table S2)) of the same compound?
Answer: 37.7%

Question: What about the inhibition at 100 µM (hNav1.5; HEK-293T, cenobamate 100 µM, read-out: % INa inhibition (peak), mean (Table S2)) of the same compound?
Answer: 49%

Question: What about the inhibition at 100 µM (hNav1.5; HEK-293T, cenobamate 100 µM, read-out: % INa inhibition (peak), single experiments (Table S2)) of the same compound?
Answer: 52.7%

Question: And the inhibition at 200 µM (hNav1.5; HEK-293T, cenobamate 200 µM, read-out: % INa inhibition (peak), mean (Table S2))?
Answer: 69.9%

Question: What about the inhibition at 200 µM (hNav1.5; HEK-293T, cenobamate 200 µM, standard protocol, step at -10 mV, initial set, mean (SD), n = 6, read-out: average inhibition of peak INa) of the same compound?
Answer: 69.5%

Question: And the inhibition at 1000 µM (hNav1.5; HEK-293T, cenobamate 1000 µM, read-out: % INa inhibition (peak), mean (Table S2))?
Answer: 89.3%

Question: What about the inhibition at 1000 µM (hNav1.5; HEK-293T, cenobamate 1000 µM, read-out: % INa inhibition (peak), single experiments (Table S2)) of the same compound?
Answer: 89.6%

Question: What about the IC50 (hNav1.5; INaIC50 (model script), value entered in C++ script) of the same compound?
Answer: 87.6 µM

Question: And the IC50 (hNav1.5; apparent IC50 for peak INa inhibition, Hill coefficient nH = 1, room temperature)?
Answer: 87.6 µM and < 100 µM

Question: What about the “% INa inhibition (peak), single experiments (Table S2)” value (“% INa inhibition (peak)” for short) (hNav1.5; cenobamate 10 µM) of the same compound?
Answer: 9.79% and 10.02% and 5.97%

Question: And the “% INa inhibition (peak)” value (hNav1.5; cenobamate 40 µM)?
Answer: 36.42% and 24.23% and 44.79% and 44.54% and 38.53%

Question: And the “% INa inhibition (peak)” value (hNav1.5; cenobamate 100 µM)?
Answer: 51.80% and 49.36% and 42.07%

Question: What about the “% INa inhibition (peak)” value (hNav1.5; cenobamate 200 µM) of the same compound?
Answer: 64.55% and 87.37% and 54.65% and 52.32% and 72.86%

Question: What about the “voltage shifts of voltage dependence of activation and steady-state inactivation” value (hNav1.5; cenobamate 200 µM, both activation and inactivation) of the same compound?
Answer: > 10 mV

Question: And the “voltage dependence of peak INa inhibition” value (hNav1.5; cenobamate 200 µM, multiple depolarizing steps)?
Answer: virtually voltage-independent

Question: And the “average inhibition of peak INa” value (hNav1.5; cenobamate 200 µM, standard protocol, step at -10 mV, initial set, mean (SD), n = 6)?
Answer: 69.53 ± 14.63%

Question: What about the “% INa inhibition, single experiments (Table S1)” value (hNav1.5; cenobamate 200 µM, step at -10 mV) of the same compound?
Answer: 56.27% and 68.71% and 86.95% and 54.87% and 87.66% and 62.74%

Question: And the “% INa inhibition (peak)” value (hNav1.5; cenobamate 1000 µM)?
Answer: 91.76% and 89.36% and 86.34%

Question: What about the IC50 (hNav1.7; read-out: IC50 on late (persistent) INa) of the same compound?
Answer: 41.8 µM

Question: And the IC50 (hNav1.7; read-out: estimated IC50 on peak (transient) Na+ current)?
Answer: > 500 µM

Question: What about the IC50 (hKv11.1 (hERG)) of the same compound?
Answer: > 200 µM

Question: What about the “% IKr inhibition, single experiments (Table S7)” value (hKv11.1 (hERG); cenobamate 200 µM) of the same compound?
Answer: 14.26% and 12.93% and 7.32% and 12.35%

Question: What about the inhibition at 20 µM (hKv11.1 (hERG), IKr; pH 7.4, cenobamate 20 µM, vs. 4.1% in control experiments, read-out: average peak IKr (hERG) inhibition) of the same compound?
Answer: 5.3 ± 1.8%

Question: And the inhibition at 200 µM (hKv11.1 (hERG), IKr; read-out: % IKr inhibition, single experiments (Table S7))?
Answer: 8.01%

Question: And the inhibition at 200 µM (hKv11.1 (hERG), IKr; read-out: average peak IKr inhibition corrected for control (10.97 − 4.1))?
Answer: 6.87%

Question: And the inhibition at 200 µM (hKv11.1 (hERG), IKr; step at -50 mV, read-out: relative peak IKr inhibition, mean)?
Answer: 11 ± 3.11%

Question: And the “peak plasma therapeutic concentration (Cmax)” value ([2]; 400 mg/day, study YKP3089C018, ref [5] p. 13)?
Answer: 45500 ng/mL

Question: What about the Cmax ([2]; read-out: Cmax (maximal effective therapeutic plasma concentration), 400 mg/day, ref [5] p. 13 / p. 10) of the same compound?
Answer: 170 µM

Question: What about the Cmax ([2]; read-out: Cmax (model script), value entered in C++ script, ref [5]) of the same compound?
Answer: 170 µM

Question: What about the IC50 (IKr (hERG)) of the same compound?
Answer: 1870 µM

Question: And the “reduction in monthly seizure frequency” value [3]?
Answer: up to 55%

Question: What about the seizure-free rates [3] of the same compound?
Answer: up to 28%

Question: And the logP [4]?
Answer: 1.66

Question: What about the physiological charge [4] of the same compound?
Answer: 0

Question: And the “strongest acidic pKa” value [4]?
Answer: 14.28

Question: What about the “strongest basic pKa” value [4] of the same compound?
Answer: −1.7
